Source: patent US20070219238A1 (priority 2004, published 2007)
Where two headings read alike, the source gives them in different places.

Test system: Phytophthora infestans
Assay type: in vivo
Conditions: individual active compound, potted tomato plants, protective, evaluated after 6 days

For `[Cu+2].[OH-].[OH-]` [II-3, copper hydroxide], the “Efficacy in % of the untreated control” value (50 ppm in the spray liquor) was 11% and the “Efficacy in % of the untreated control” value (100 ppm in the spray liquor) was 22%.

`O=C([O-])[O-].[Cu+2].[Cu+2].[OH-].[OH-]` [II-2, (basic) copper carbonate] was tested, and the “Efficacy in % of the untreated control” value (50 ppm in the spray liquor) was 0% and the “Efficacy in % of the untreated control” value (100 ppm in the spray liquor) was 11%.

`[Cl-].[Cu+2].[Cu+2].[OH-].[OH-].[OH-]` [II-1, copper oxychloride] was tested, and the “Efficacy in % of the untreated control” value (50 ppm in the spray liquor) was 0% and the “Efficacy in % of the untreated control” value (100 ppm in the spray liquor) was 22%.

`CC1CCN(c2c(-c3c(F)cccc3Cl)c(Cl)nc3ncnn23)CC1` [comparative compound A] was tested, and the “Efficacy in % of the untreated control” value (50 ppm in the spray liquor) was 0%.

In the case of `CC1CCN(c2c(-c3c(F)cc(F)cc3F)c(Cl)nc3ncnn23)CC1` [I, 5-chloro-7-(4-methylpiperidin-1-yl)-6-(2,4,6-trifluorophenyl)[1,2,4]triazolo [1,5-a]pyrimidine], the “Efficacy in % of the untreated control” value (50 ppm in the spray liquor) is reported as 0%.

In the case of `C[C@H](Nc1c(-c2c(F)cc(F)cc2F)c(Cl)nc2ncnn12)C(F)(F)F` [comparative compound B], the “Efficacy in % of the untreated control” value (50 ppm in the spray liquor) is reported as 0%.
